Assay results as given in the supplement of paper PMC11451515.

Tested on: SEM cells
Test: cell viability relative to DMSO control; higher = less cytotoxic
Details: 48 h
How it was run: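 Viability was expressed as a per-plate percentage of DMSO wells, with cell-free wells as background. Leukemia cells (NOMO1 or SEM at 500 cells/well, P12-Ichikawa at 1000 cells/well) were adapted for at least four passages in each medium and seeded in 1536-well plates (5 μl). Library compounds in DMSO were pin-dosed over an 11-point threefold series from 47 μM to 0.79 nM, and CellTiter-Glo One luminescence was read after 48 h at 37°C.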

[1] = HPLM + 10% dialyzed FBS, 0.000781 µM
[2] = HPLM + 10% dialyzed FBS, 0.00234 µM
[3] = HPLM + 10% dialyzed FBS, 0.00702 µM
[4] = HPLM + 10% dialyzed FBS, 0.0211 µM
[5] = HPLM + 10% dialyzed FBS, 0.0632 µM
[6] = HPLM + 10% dialyzed FBS, 0.19 µM
[7] = HPLM + 10% dialyzed FBS, 0.569 µM
[8] = HPLM + 10% dialyzed FBS, 1.71 µM
[9] = HPLM + 10% dialyzed FBS, 5.12 µM
[10] = HPLM + 10% dialyzed FBS, 15.4 µM
[11] = HPLM + 10% dialyzed FBS, 46.1 µM
[12] = RPMI 5 mM glucose + 10% FBS, 0.000781 µM
[13] = RPMI 5 mM glucose + 10% FBS, 0.00234 µM
[14] = RPMI 5 mM glucose + 10% FBS, 0.00702 µM
[15] = RPMI 5 mM glucose + 10% FBS, 0.0211 µM
[16] = RPMI 5 mM glucose + 10% FBS, 0.0632 µM
[17] = RPMI 5 mM glucose + 10% FBS, 0.19 µM
[18] = RPMI 5 mM glucose + 10% FBS, 0.569 µM
[19] = RPMI 5 mM glucose + 10% FBS, 1.71 µM
[20] = RPMI 5 mM glucose + 10% FBS, 5.12 µM
[21] = RPMI 5 mM glucose + 10% FBS, 15.4 µM
[22] = RPMI 5 mM glucose + 10% FBS, 46.1 µM
[23] = RPMI 5 mM glucose + 10% dialyzed FBS, 0.000781 µM
[24] = RPMI 5 mM glucose + 10% dialyzed FBS, 0.00234 µM
[25] = RPMI 5 mM glucose + 10% dialyzed FBS, 0.00702 µM
[26] = RPMI 5 mM glucose + 10% dialyzed FBS, 0.0211 µM
[27] = RPMI 5 mM glucose + 10% dialyzed FBS, 0.0632 µM
[28] = RPMI 5 mM glucose + 10% dialyzed FBS, 0.19 µM
[29] = RPMI 5 mM glucose + 10% dialyzed FBS, 0.569 µM
[30] = RPMI 5 mM glucose + 10% dialyzed FBS, 1.71 µM
[31] = RPMI 5 mM glucose + 10% dialyzed FBS, 5.12 µM
[32] = RPMI 5 mM glucose + 10% dialyzed FBS, 15.4 µM
[33] = RPMI 5 mM glucose + 10% dialyzed FBS, 46.1 µM

SMILES | cell viability [1] | cell viability [2] | cell viability [3] | cell viability [4] | cell viability [5] | cell viability [6] | cell viability [7] | cell viability [8] | cell viability [9] | cell viability [10] | cell viability [11] | cell viability [12] | cell viability [13] | cell viability [14] | cell viability [15] | cell viability [16] | cell viability [17] | cell viability [18] | cell viability [19] | cell viability [20] | cell viability [21] | cell viability [22] | cell viability [23] | cell viability [24] | cell viability [25] | cell viability [26] | cell viability [27] | cell viability [28] | cell viability [29] | cell viability [30] | cell viability [31] | cell viability [32] | cell viability [33]
CC[C@H]1OC(=O)[C@H](C)[C@@H](O[C@H]2C[C@@](C)(OC)[C@@H](O)[C@H](C)O2)[C@H](C)[C@@H](O[C@@H]2O[C@H](C)C[C@H](N(C)C)[C@H]2O)[C@](C)(O)C[C@@H](C)/C(=N\OCOCCOC)[C@H](C)[C@@H](O)[C@]1(C)O | 95.3% | 89% | 95.1% | 95.3% | 105% | 83.1% | 76.7% | 93.6% | 85.2% | 80.5% | 73.4% | 107% | 98.1% | 109% | 108% | 111% | 87.4% | 94.6% | 97.5% | 96.9% | 87.9% | 95.6% | 103% | 104% | 107% | 116% | 108% | 96.3% | 92.9% | 103% | 100% | 93.8% | 71.7%
COc1ccc(/C=C/C(=O)Nc2ccccc2C(=O)O)cc1OC |  |  |  |  |  |  |  |  |  |  |  | 109% | 140% | 118% | 130% | 99.4% | 97.5% | 110% | 116% | 125% | 106% | 104% | 94.7% | 115% | 110% | 108% | 35.1% | 115% | 96.7% | 110% | 116% | 129% | 96.7%
OC1CCC(CC1)N2\C=N/C3=C(C2=N)C(=C([N]3CC4=CC=CC=C4)C5=CC=CC=C5)C6=CC=CC=C6 (centres undefined) | 117% | 123% | 134% | 116% | 113% | 98.9% | 46.8% | 47.2% | 38.6% | 39% | 41% | 110% | 117% | 131% | 108% | 102% | 97.6% | 47.4% | 39.4% | 37% | 37.8% | 24% |  |  |  |  |  |  |  |  |  |  | 
O=C(O)c1cccnc1 | 111% | 117% | 109% | 118% | 105% | 106% | 98.2% | 37.5% | 14.4% | 9.12% | 6.43% |  |  |  |  |  |  |  |  |  |  |  |  |  |  |  |  |  |  |  |  |  | 
CCC[C@H](Nc1nc(-c2ccc(NC(=O)NCC)c(OC)c2)ncc1C)c1cccnc1 | 87.7% | 108% | 94% | 112% | 27.2% | 28.4% | 26.7% | 19.4% | 12.9% | 13.1% | 10.7% | 4.71% | 78.8% | 84.3% | 114% | 16.5% | 21% | 17.2% | 10.4% | 6.57% | 6.69% | 3.95% | 102% | 105% | 87.1% | 134% | 23.6% | 23.7% | 24.9% | 10.9% | 7.58% | 7.31% | 4.35%
CCC(=O)NC[C@H](Cc1ccc(OCCc2nc(-c3ccccc3)oc2C)cc1)N/C(C)=C\C(=O)c1ccc(C(F)(F)F)cc1 | 68.8% | 106% | 104% | 88.3% | 91% | 109% | 4.25% | 81.6% | 82.6% | 50.4% | 49.3% | 83.1% | 97.2% | 120% | 105% | 98% | 120% | 4.86% | 83.4% | 99.4% | 51.9% | 67.2% | 60.2% | 97.7% | 113% | 118% | 120% | 109% | 5.19% | 93% | 94.5% | 43.9% | 65.5%
CC[C@H](CO)Nc1nc(NCc2ccccc2)c2ncn(C(C)C)c2n1 | 89.9% | 96.2% | 95.3% | 86.9% | 93.7% | 96.8% | 83.7% | 99.8% | 94% | 98.1% | 58.7% | 114% | 97.4% | 128% | 111% | 112% | 126% | 126% | 99.9% | 108% | 120% | 63.6% | 102% | 102% | 88.6% | 88.2% | 90.8% | 95.6% | 98% | 97% | 102% | 88.1% | 35.3%
COc1cccc(OC)c1-c1cc(C(=O)NC2(C(=O)O)C3CC4CC(C3)CC2C4)nn1-c1ccnc2cc(Cl)ccc12 (centres undefined) | 107% | 94.1% | 96.4% | 109% | 115% | 112% | 117% | 102% | 104% | 97.8% | 112% | 89.7% | 98% | 106% | 92.4% | 107% | 98.4% | 104% | 110% | 117% | 92.6% | 79.2% | 95.2% | 118% | 109% | 126% | 96.3% | 119% | 117% | 102% | 116% | 118% | 113%
OC[C@H]1OC(O)C[C@@H](O)[C@@H]1O (some centres undefined) | 83.6% | 32.6% | 104% | 99.5% | 92.4% | 96% | 92.8% | 101% | 101% | 97.8% | 97.9% | 95.6% | 26.8% | 118% | 116% | 114% | 115% | 118% | 125% | 109% | 136% | 127% | 97.6% | 37.5% | 116% | 104% | 118% | 113% | 120% | 120% | 109% | 116% | 119%
CCc1nc(N)nc(N)c1-c1ccc(Cl)cc1 | 89% | 95% | 68.1% | 108% | 115% | 106% | 98.9% | 63% | 41% | 47.6% | 36.6% | 77% | 81.2% | 63.4% | 91.9% | 97.1% | 99.3% | 93% | 87.3% | 36% | 93.9% | 83.6% | 77.4% | 92.2% | 70.5% | 96.5% | 98.4% | 92.4% | 95.3% | 101% | 48.6% | 85.9% | 46.6%
Cc1cc(/C=c2/sc3nc4ccccc4n3c2=O)c(C)n1-c1ccccc1 | 115% | 121% | 93.5% | 122% | 112% | 128% | 125% | 108% | 128% | 110% | 101% | 117% | 119% | 113% | 137% | 117% | 122% | 130% | 128% | 125% | 125% | 118% | 117% | 110% | 99.1% | 121% | 128% | 122% | 108% | 118% | 111% | 113% | 116%
N#CC1(c2cccc(C(=O)Nc3cc(Oc4ccc5nc(NC(=O)C6CC6)sc5n4)ccc3F)c2Cl)CC1 | 93.5% | 95.8% | 106% | 93.9% | 117% | 118% | 102% | 94.9% | 82.1% | 46.7% | 30.6% | 75.1% | 89% | 90.5% | 74.5% | 84.1% | 68.2% | 74.5% | 59.1% | 39.4% | 17.4% | 17.6% | 101% | 106% | 106% | 105% | 105% | 102% | 108% | 83.2% | 69.6% | 37.1% | 26.3%
CN1CCN(CC1)C2=CC3=C([NH]C(=N3)C/4=C(\N)C5=C(F)C=CC=C5NC4=O)C=C2 | 39.9% | 48.9% | 44.5% | 45.4% | 31% | 46.1% | 36.6% | 26.5% | 21.4% | 17.3% | 5.83% | 52.6% | 65.8% | 50% | 54.7% | 37.4% | 44.5% | 36.2% | 25.6% | 19.5% | 9.89% | 8.79% | 40.7% | 58.3% | 43.3% | 41.6% | 31.2% | 34.6% | 32.7% | 27.2% | 19.8% | 10.5% | 5.75%
CCCCCN(C)CCC(O)(P(=O)([O-])O)P(=O)(O)O | 57.1% | 71.9% | 72.8% | 85.3% | 71.8% | 91.8% | 88.3% | 21.9% | 82.8% | 104% | 75.2% | 74.5% | 88.1% | 84.1% | 90.4% | 75.5% | 100% | 98.3% | 16.9% | 77.5% | 107% | 73.3% | 70% | 85.4% | 69% | 95.7% | 71.5% | 87.9% | 83.2% | 17.4% | 86.4% | 102% | 78.4%
c1ccc2c(CN3CCNCC3)cccc2c1 | 102% | 102% | 115% | 108% | 100% | 126% | 108% | 107% | 102% | 98.8% | 98.8% | 85.5% | 104% | 98.6% | 107% | 97.4% | 101% | 97.1% | 103% | 92.7% | 101% | 105% | 97.7% | 106% | 126% | 124% | 128% | 122% | 106% | 131% | 95.7% | 103% | 84%
O=C1\C=C(OC2=C(C=CC=C12)C3=CC=CC4=C3SC5=C4C=CC=C5)\N6CCOCC6 | 110% | 103% | 121% | 120% | 124% | 115% | 107% | 104% | 96.9% | 89.9% | 91.2% | 133% | 104% | 105% | 138% | 109% | 112% | 112% | 114% | 73% | 60.2% | 62.7% | 129% | 109% | 116% | 123% | 116% | 123% | 122% | 113% | 78.5% | 75.7% | 76%
